Experimental data reported in patent US20040092566A1, “Celecoxib prodrug” (priority 2002, published 2004).

What was measured:
COX-1 = COX-1 (Homo sapiens, UniProt P23219); settings: background statement; cited from earlier work
Chain of COX-1 (P23219 24-599): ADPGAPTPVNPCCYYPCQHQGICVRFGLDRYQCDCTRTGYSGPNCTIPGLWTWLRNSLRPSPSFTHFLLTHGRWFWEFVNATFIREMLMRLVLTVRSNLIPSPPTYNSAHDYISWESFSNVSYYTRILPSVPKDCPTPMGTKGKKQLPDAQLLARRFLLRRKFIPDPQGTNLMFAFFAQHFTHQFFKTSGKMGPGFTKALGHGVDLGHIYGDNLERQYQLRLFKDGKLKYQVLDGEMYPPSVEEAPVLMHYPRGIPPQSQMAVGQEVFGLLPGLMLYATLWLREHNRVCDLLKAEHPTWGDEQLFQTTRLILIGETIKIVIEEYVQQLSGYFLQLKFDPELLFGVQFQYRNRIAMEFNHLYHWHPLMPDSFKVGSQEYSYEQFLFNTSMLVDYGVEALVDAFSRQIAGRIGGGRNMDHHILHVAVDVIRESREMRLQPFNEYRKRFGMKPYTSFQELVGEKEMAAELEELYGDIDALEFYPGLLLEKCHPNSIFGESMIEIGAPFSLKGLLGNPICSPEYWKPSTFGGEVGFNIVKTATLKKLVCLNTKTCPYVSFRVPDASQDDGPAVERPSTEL

| SMILES | in vitro inhibitory activity against COX-1 (COX-1) | melting point [°C] |
| --- | --- | --- |
| CCC(=O)NS(=O)(=O)c1ccc(-c2c(-c3ccccc3)noc2C)cc1 [Parecoxib] | weak | – |
| CCC(=O)NS(=O)(=O)c1ccc(-n2nc(C(F)(F)F)cc2-c2ccc(C)cc2)cc1 [compound (V), N-[[4-[5-(4-methylphenyl)-3-(trifluoromethyl)-1H-pyrazol-1-yl]phenyl]-sulfonyl]propanamide] | – | 88.3 to 96.7 |
| CCC(=O)[N-]S(=O)(=O)c1ccc(-n2nc(C(F)(F)F)cc2-c2ccc(C)cc2)cc1.[Na+] [compound Z, 4-[5-(4-methylphenyl)-3-(trifluoromethyl)-1H-pyrazol-1-yl]-N-propionylbenzenesulfonamide, sodium salt] | – | > 300 |
| Cc1onc(-c2ccccc2)c1-c1ccc(S(N)(=O)=O)cc1 [valdecoxib] | weak | – |
